Converted amounts (≈) assume the structure as drawn. Counter-ions that a name gives are not always drawn. Like-named read-outs stand apart in the source and are kept apart here. Blank lines part the entries; values can stand above or below the compound they belong to.
Legend:
[1] = Hygroscopicity test by dynamic vapor sorption (DVS); assay type: physicochemical
Experimental: The dynamic vapor sorption (DVS) curve was collected on DVS IntrInsic from SMS (surface measurement systems). The relative humidity at 25°C was corrected using the deliquescence points of LiCl, Mg(NO3)2, and KCl. Table 18 DVS test parameters
The percentage change in sample mass was collected under constant temperature at 25°C as humidity varied from 0%RH to 95%RH.

[2] = Solid-state stability (XRPD and HPLC after open storage); assay type: physicochemical; details: for Crystal form: XRPD
Experimental: The purity test, dynamic solubility test, and stability test in the assay were measured using an Agilent 1260 high-performance liquid chromatograph, and the salt formation molar ratio of ions was tested by ion chromatography, and the analytical conditions are shown in Table 19 and Table 20. Table 19 High-performance liquid chromatography test conditions

[3] = Variable humidity XRPD (VH-XRPD); assay type: physicochemical
From the text: The XRPD pattern was collected on an X-ray powder diffraction analyzer produced by PANalytacal, and the scanning parameters are shown in Table 16. Table 16 XRPD test parameters
Under low-humidity conditions (e.g., 30% RH), the sample reverts to the anhydrous crystal form A of the fumarate salt.

[4] = physchem
Experimental: (§2) Rotating mixing was carried out at 37°C at a solid feed concentration of 10 mg/mL (calculated as the compound of Formula I). […] After sampling at each time point, the samples were centrifuged (10000 rpm) and filtered (0.45 µm PTFE filter head), and the HPLC concentration and pH value of the filtrate were measured.
(§3) 100 mg of NaCl and 50 mg of Triton X-100 were weighed into a 50 mL volumetric flask, and purified water was added to complete dissolution. 816 µL of 1 M hydrochloric acid was added thereto, and the pH was adjusted to 1.8 with 1 M hydrochloric acid or 1 M NaOH solution. Purified water was added to make up to volume.
(§4) 340 mg of anhydrous NaH2PO4 and 620 mg of NaCl were weighed into a 100 mL volumetric flask. Purified water was added to complete dissolution, followed by addition of 55.44 µL of 50% NaOH solution, and the pH was adjusted to 6.5 using 1M HCl or 1M NaOH solution. Purified water was added to make up to volume. 110 mg of SIF powder was then weighed into a 50 mL volumetric flask, added with the above solution to complete dissolution and make up to volume.
(§5) 0.82 mL of glacial acetic acid and 1.18 g of NaCl were added to a 100 mL volumetric flask. Purified water was added to complete dissolution, followed by addition of 528 µL of 50% NaOH solution, and the pH was adjusted to 5.0 using 1M HCl or 1M NaOH solution. Purified water was added to make up to volume. 560 mg of SIF powder was then weighed into a 50 mL volumetric flask, added with the above solution to complete dissolution and make up to volume.

[5] = Dynamic solubility experiment at 37°C (water, SGF, FaSSIF, FeSSIF); details: for S: solubility: solid feed 10 mg/mL; for pH: pH value of the filtrate
Experimental: as §2, §3, §4, §5

[6] = biological target: T1, tubulin (Sus scrofa, UniProt P02550+P02554); assay: Inhibition test of tubulin monomer polymerization (Tubulin polymerization assay kit, fluorescence); assay type: biochemical; details: 5 µL of 12.5 µM compound solution; fluorescence ex 360 nm / em 420 nm, 37°C; larger value = lower inhibitory efficiency
T1 construct: purchased cytoskeleton BK011P
T1 sequence (P02550 whole entry): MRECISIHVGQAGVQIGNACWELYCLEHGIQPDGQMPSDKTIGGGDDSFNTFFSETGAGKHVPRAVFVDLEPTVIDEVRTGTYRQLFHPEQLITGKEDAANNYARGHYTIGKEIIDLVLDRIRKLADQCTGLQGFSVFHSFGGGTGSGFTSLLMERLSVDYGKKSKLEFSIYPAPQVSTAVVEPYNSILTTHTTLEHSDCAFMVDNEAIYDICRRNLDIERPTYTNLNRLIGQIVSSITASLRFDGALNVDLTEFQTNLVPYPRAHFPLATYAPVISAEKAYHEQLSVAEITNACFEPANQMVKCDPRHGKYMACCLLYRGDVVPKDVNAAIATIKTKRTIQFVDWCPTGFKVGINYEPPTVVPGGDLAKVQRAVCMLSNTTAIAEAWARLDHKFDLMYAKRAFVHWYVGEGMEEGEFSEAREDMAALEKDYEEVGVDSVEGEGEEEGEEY
T1 sequence (P02554 whole entry): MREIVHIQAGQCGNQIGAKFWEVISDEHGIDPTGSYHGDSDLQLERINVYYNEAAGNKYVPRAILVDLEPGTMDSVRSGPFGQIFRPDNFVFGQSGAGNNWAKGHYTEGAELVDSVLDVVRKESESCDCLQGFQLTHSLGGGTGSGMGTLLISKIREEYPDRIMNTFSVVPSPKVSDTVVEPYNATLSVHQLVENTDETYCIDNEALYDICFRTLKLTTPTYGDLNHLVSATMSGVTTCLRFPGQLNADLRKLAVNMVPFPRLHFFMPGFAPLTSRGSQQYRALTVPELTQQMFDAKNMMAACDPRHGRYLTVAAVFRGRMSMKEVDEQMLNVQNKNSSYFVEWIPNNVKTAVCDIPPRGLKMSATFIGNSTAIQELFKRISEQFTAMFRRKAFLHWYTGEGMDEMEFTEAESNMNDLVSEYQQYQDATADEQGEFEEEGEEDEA
Experimental: Tubulin polymerization assay kit (cytoskeleton, Cat. # BK011P) was used to conduct the compound inhibition test of tubulin monomer polymerization.
Before the test, the 96-well plate (Corning Costar, Cat. # 3686) supplied with the kit was first placed in a microplate reader (MD, SpectraMax M5) and heated to 37°C, maintained for 10 minutes. The 96-well plate was then removed, and 5 µL of 12.5 µM compound solution or blank solution was added thereto. The 96-well plate was then placed back into the microplate reader and incubated at 37°C for 1 minute to heat the compound solution to 37°C. The 96-well plate was removed and 50 µL of reaction mixture prepared according to the supplier's instructions was quickly added to each well, completing the sample addition within 1 minute to avoid the formation of bubbles. The 96-well plate was then immediately placed back into the microplate reader, shaken for 5 seconds, and using the Kinetic mode, continuous detection was carried out at 37°C for 30 to 60 minutes under the conditions of excitation light at 360 nm and emission light at 420 nm, with detection every 30 seconds. Taking the detection time as the X-axis and the fluorescence signal value as the Y-axis, the tubulin monomer polymerization curve was obtained. As shown in FIG. 66 and Table 40, the larger the Vmax value and the higher the maximum fluorescence signal value of the polymerization curve, the lower the inhibitory efficiency of the compound.

[7] = system: Human cutaneous squamous cell carcinoma cell A-431; assay: Cell proliferation inhibition test, A-431; assay type: cell-based; details: A-431, 96 h, 4 days incubation
Experimental: (§1) Human cutaneous squamous cell carcinoma cell A-431 (ATCC, CRL-1555) and actinic keratosis patient-derived cell HT 297.T (ATCC, CRL-7782) proliferation assays were used to detect the inhibitory effect of small molecular compounds on cell proliferation.
A-431 cells and HT 297.T cells were cultured in DMEM medium containing 10% fetal bovine serum and grown at 37°C in a 5% CO2 incubator. Cells on logarithmic phase were seeded into a 96-well cell culture plate at 1000 cells/well, 100 µL per well, and then cultured overnight at 37°C in a 5% CO2 incubator. The next day, 100 µL of gradient-diluted 2× test compound solution was added to each well, with DMSO serving as a positive control, and 10 µM staurosporine (Aladdin, S102392) was set as a negative control group. After the addition of the compounds, the culture plate was incubated for another 4 days at 37°C in a 5% CO2 incubator. After incubation, the Steady-Glo® luciferase assay system (Promega, G9243) was used according to the supplier's instructions to measure the fluorescence signal value on the Envision 2104 Multilabel Reader. The inhibition rate was calculated by the following formula, then the curve was plotted with the Log value of the inhibitor concentration as the X-axis and the inhibition rate as the Y-axis, and the IC50 was calculated using Graphpad 8.0. [formula] […]

[8] = system: actinic keratosis patient-derived cell HT 297.T; assay: Cell proliferation inhibition test, HT 297.T; assay type: cell-based, Human; details: Homo sapiens, 96 h; 4 days incubation
Experimental: as §1
A-431 cells and HT 297.T cells were cultured in DMEM medium containing 10% fetal bovine serum and grown at 37°C in a 5% CO2 incubator. Cells on logarithmic phase were seeded into a 96-well cell culture plate at 1000 cells/well, 100 µL per well, and then cultured overnight at 37°C in a 5% CO2 incubator. The next day, 100 µL of gradient-diluted 2× test compound solution was added to each well, with DMSO serving as a positive control, and 10 µM staurosporine (Aladdin, S102392) was set as a negative control group. After the addition of the compounds, the culture plate was incubated for another 4 days at 37°C in a 5% CO2 incubator. After incubation, the Steady-Glo® luciferase assay system (Promega, G9243) was used according to the supplier's instructions to measure the fluorescence signal value on the Envision 2104 Multilabel Reader. The inhibition rate was calculated by the following formula, then the curve was plotted with the Log value of the inhibitor concentration as the X-axis and the inhibition rate as the Y-axis, and the IC50 was calculated using Graphpad 8.0. [formula] Table 41: Inhibition results of test compounds on proliferation activity of A-431 and HT 297.T cells

[9] = Thermodynamic solubility test; assay type: physicochemical; details: thermodynamic from solid, 4 mg/mL, overnight at room temperature
Experimental: Phosphate buffer saline (PBS) with a pH of 7.4, FeSSIF solution with a pH of 6.5, and FaSSGF solution with a pH of 1.6 were prepared. The compound was accurately weighed and added to prepared phosphate buffer saline with a pH of 7.4, FeSSIF solution with a pH of 6.5, and FaSSGF solution with a pH of 1.6 to prepare into a solution with a concentration of 4 mg/mL. The solution was shaken at a speed of 1000 rpm for 1 hour, and then incubated overnight at room temperature. The incubated solution was centrifuged at 12,000 rpm for 10 minutes to remove undissolved particles, and the supernatant was transferred to a new centrifuge tube. After the supernatant was appropriately diluted, an acetonitrile solution containing internal standard was added, and a standard curve prepared with the same matrix was used for quantification. Table 42: Thermodynamic solubility test results

[10] = Pharmacokinetic test in mice; assay type: in vivo; details: mouse, plasma, male ICR mice
Experimental: For the pharmacokinetic test in mice, 3 male ICR mice, 20 to 25 g, were used, fasted overnight, and administered by tail vein injection (1 mg/kg or 5 mg/kg). Blood was collected before the administration, and at 15 min, 30 min, 1 hour, 2 hours, 4 hours, 8 hours, and 24 hours after the administration. Another 3 mice were taken and administered by oral gavage (5 mg/kg), and blood was collected before the administration, and at 15 min, 30 min, 1 hour, 2 hours, 4 hours, 8 hours, and 24 hours after the administration. Blood samples were centrifuged at 6800 g at 2 to 8°C for 6 min, and plasma was collected and stored at -80°C. The plasma at each time point was taken and added with an acetonitrile solution containing internal standard in 3 to 5 times the amount. The mixture was vortexed and mixed for 1 min, and centrifuged at 13,000 rpm at 4°C for 10 min. The supernatant was collected, added with water in 3 times the amount, and mixed. An appropriate amount of the mixture was taken for LC-MS/MS analysis. The main pharmacokinetic parameters were analyzed using WinNonlin 7.0 software with non-compartmental model. Table 43: Results 1 of pharmacokinetic tests in mice

[11] = Human liver microsome stability test; assay type: in vitro ADME; details: human liver microsomes, NADPH, 37°C, 0-45 min
Experimental: The human liver microsome stability test was performed by incubating the compound and human liver microsomes in vitro. First, the compound to be tested was prepared into a 10 mM stock solution in DMSO solvent, and then the compound was diluted to 0.5 mM with acetonitrile. Human liver microsomes (Corning) were diluted with PBS into a microsome/buffer solution, and the solution was used to dilute 0.5 mM compound into a working solution, in which the concentration of the compound was 1.5 µM, and the concentration of human liver microsomes was 0.75 mg/mL. A deep-well plate was taken, 30 µL of the working solution was added per well, and then 15 µL of pre-heated 6 mM NADPH solution was added thereto to initiate a reaction, and the reaction was incubated at 37°C. At 0, 5, 15, 30 and 45 min of the incubation, 135 µL of acetonitrile was added to the corresponding wells to terminate the reaction. After the reaction was terminated with acetonitrile at the last time point of 45 min, the deep-well plate was vortexed and shaken for 10 min (600 rpm), and then centrifuged for 15 min. After centrifugation, the supernatant was collected, and added with purified water in a ratio of 1:1 to perform LC-MS/MS detection. A ratio of a peak area of compound to a peak area of internal standard at each time point was obtained, and the peak area ratios of the compound at 5, 15, 30 and 45 min were compared with the peak area ratio at 0 min to calculate the remaining percentage of the compound at each time point. T1/2 was calculated by using GraphPad 5 software. Table 45: Results of human liver microsome stability test

[12] = intravenous injection administration (1 mg/kg)
[13] = oral gavage administration (5 mg/kg)

- hygroscopicity ([1]; DVS, 25°C, 0%RH to 95%RH, listed as crystal form A of the fumarate salt): significantly hygroscopic above 70% RH
- weight change in DVS test ([1]; high-humidity conditions (>70% RH)): significant weight gain
- Purity (area%) ([2]; 25°C/60%RH/open, 1 week): 97.02 area%
- Relative to initial (%) ([2]; 25°C/60%RH/open, 1 week): 100.0%
- Crystal form ([2]; 25°C/60%RH/open, 1 week): Crystal form A of fumarate salt
- Purity (area%) ([2]; 40°C/75%RH/open, 1 week): 97.09 area%
- Relative to initial (%) ([2]; 40°C/75%RH/open, 1 week): 100.1%
- Crystal form ([2]; 40°C/75%RH/open, 1 week): Crystal form A of fumarate salt
- Purity (area%) ([2]; Initial): 96.99 area%
- XRPD change at high humidity ([3]; placed at 85% RH): shift in diffraction peaks
- solubility at 1 h ([4]; fessif): 3630 µg/mL
- solubility at 4 h ([4]; fessif): 3600 µg/mL
- solubility at 24 h ([4]; fessif): 3610 µg/mL
- solubility at 1 h ([4]; sgf): 9650 µg/mL
- solubility at 4 h ([4]; sgf): 9820 µg/mL
- solubility at 24 h ([4]; sgf): 9170 µg/mL
- S: solubility ([5]; FaSSIF, 1 hour, 60 min): 8720 µg/mL
- S: solubility ([5]; FaSSIF, 4 hours, 240 min): 8940 µg/mL
- S: solubility ([5]; FaSSIF, 24 hours, 1440 min): 8240 µg/mL
- S: solubility ([5]; H2O, 1 hour, 60 min): 9440 µg/mL
- S: solubility ([5]; H2O, 4 hours, 240 min): 9720 µg/mL
- S: solubility ([5]; H2O, 24 hours, 1440 min): 9380 µg/mL
- pH ([5]; FaSSIF, 1 hour): 4.3
- pH ([5]; FaSSIF, 4 hours): 4.4
- pH ([5]; FaSSIF, 24 hours): 4.4
- pH ([5]; FeSSIF, 1 hour): 4.6
- pH ([5]; FeSSIF, 4 hours): 4.6
- pH ([5]; FeSSIF, 24 hours): 4.6
- pH ([5]; H2O, 1 hour): 4.0
- pH ([5]; H2O, 4 hours): 4.0
- pH ([5]; H2O, 24 hours): 4.0
- pH ([5]; SGF, 1 hour): 3.4
- pH ([5]; SGF, 4 hours): 3.4
- pH ([5]; SGF, 24 hours): 3.4
SMILES: Cc1cc(OCCN2C[C@H]3COC[C@H]3C2)ccc1-c1ccc(CC(=O)NCc2ccccc2)nc1 [Crystal form A of fumarate salt]
- crystal form after return to low humidity ([3]; returned to 30% RH): converted back to the crystal form A of the fumarate salt

- Maximum signal value [6]: 611
- IC50 [7]: 40.3 nM
- solubility ([9]; FeSSIF solution, FeSSIF (pH 6.5), read-out: Solubility (µg/mL) FeSSIF (pH 6.5)): 60.5 µg/mL (≈ 140 µM)
- solubility ([9]; phosphate buffer saline (PBS), aqueous buffer, PBS (pH 7.4), read-out: Solubility (µg/mL) PBS (pH 7.4)): 9.77 µg/mL (≈ 22.6 µM)
- AUC(0-t) [10, 12]: 525 ng·h/mL
- clearance [10, 12]: 31.3 mL/min/kg
- AUC(0-t) [10, 13]: 1820 ng·h/mL
- Cmax [10, 13]: 1010 ng/mL
- half-life at 1 µM [11]: 32.2 min
SMILES: O=C(Cc1ccc(-c2ccc(OCCN3CCOCC3)cc2)cn1)NCc1ccccc1 [Control compound, Tirbanibulin, reference compound]
- IC50 [8]: 85.4 nM
